Read-outs that look alike come from different tables or passages of the source. Each block holds one compound with its values, some of them ahead of it.
Experiments:
K562-MDR1 cells [1] = assay: MTT viability test, K562-MDR1; format: cell-based, human; details: for viability at 0.005 µM: 48 h, 0,005 µM; for IC50: MTT; for Cross-resistance of K562-MDR1 cells: MTT assay
Text: The K562-MDR1 cell line was developed using increasing concentrations of the commonly used antimitotic drug vincristine on a polyclonal K562 population, as described earlier. […] The DMSO concentration in the culture was 0.1%. The vincristine dose was doubled every 2–3 weeks (at least twice for each experiment) after the cells reached confluence. Cell’s viability was above 90%, as confirmed by Muse Cell Analyzer (Merck Millipore, Burlington, MA, USA). The final concentration of vincristine reached was 0.1 μM. The increase in the K562-MDR1 population was confirmed by flow cytometry and PCR.
(§1) Cells were seeded in 96-well plates; after 24 h, medium with the appropriate drug concentration was added to each well. After 48 h, Tetrazolium Bromide (Sigma-Aldrich, St. Louis, MO, USA) was added to each well for 2–3 h. After that, cells were lysed and formazan crystals were dissolved. Absorbance was read using an iMark Microplate absorbance reader (Bio-Rad, Hercules, CA, USA). Results were calculated relative to cells treated with DMSO only. […]
(§2) Cells were seeded in 96-well plates at 7 × 10^3 cells/well in 50 µL of complete medium (for K562 or K562-MDR1) or at 50 × 10^3 cells/well in 50 µL of complete medium (CD34+ cells). After 24 hours, 50 µL of medium with the appropriate drug concentration was added to each well. The final DMSO concentration per well was 1% for K562 and K562-MDR1 and 0.1% for CD34+ cells. After 48 hours, 20 µL of Tetrazolium Bromide (Sigma-Aldrich, St. Louis, MO, USA) at a concentration of 5 mg/mL was added to each well. Cells were incubated for 2-3 hours in a cell culture incubator, and then 10% SDS with 1% HCl was added to each well to lyse the cells and dissolve the formazan crystals. Plates were […]

K562 cells [2] = assay: MTT viability test, K562; format: cell-based; details: Homo sapiens; for viability at 0.005 µM: K562, 48 h, 0,005 µM; for IC50: K562
Experimental: CML cell line K562 CCL-243™ (BCR-ABL^+) was purchased from the ATCC® (Manassas, VA, USA). Cells were grown in RPMI 1640 medium containing HEPES (Biowest, Nuaillé, France) with 2 mM GlutaMAX (Gibco, Grand Island, NY, USA), supplemented with 10% fetal bovine serum (Sigma-Aldrich, St. Louis, MO, USA) and […] (Gibco, Grand Island, NY, USA) and 0.1 µM Vincristine (for K562-MDR1).
as §1, §2

[3] = Blood morphology in K562 xenograft mice; details: 500 mg/kg IP daily 14 days, N=4
Experimental: (§3) Eight-week-old female NOD.Cg-Prkdcscid Il2rgtm1Wjl/SzJ NSG mice (Jackson Laboratory, Bar Harbor, ME, USA) were injected subcutaneously into the dorsal fold with 1 × 10^6 K562 cells of the human chronic myeloid leukemia (CML) line in a final volume of 100 µL (0.5% of the mouse weight). On day 3 after cell administration, mice were randomly assigned to each group, and on days 4–17 of the experiment, the selected tested compounds and control solutions were administered intraperitoneally or orally. During the experiment, subcutaneous tumors and body weight were measured daily. Tumor growth during the experiment was measured with an electronic display caliper. The theoretical tumor volume [mm], was calculated according to the formula (a^2 × b) * 0.5, where a is the shorter tumor axis [mm] and b is the longer tumor axis [mm]. On day 26, the experiment was terminated: blood was collected and analyzed for cellular morphology and standard biochemistry metabolites. Tumors were weighed.
(§4) Control and treated mice were grouped according to the tested compounds and the scheme of their administrations (doses, administration frequencies, routes of administration) in the CML xenogeneic model obtained by subcutaneous transplantation of 1 × 10^6 cells of the human CML blast line K562 into mice NOD.Cg-Prkdcscid Il2rgtm1Wjl/SzJ (NSG).
(§5) Hydroxyurea K562 500 mg/kg, IP Aqua pro 1 x daily 8

[4] = Body and organ weights in K562 xenograft mice
Experimental: as §3, §4, §5

K562 cells [5] = assay: K562 xenogeneic mouse model, tumor growth; format: in vivo, NSG mice
Experimental: Statistical analysis was performed using GraphPad Prism version 9.1.0. All in vitro experiments were performed in at least triplicate biological replicates and statistical results are expressed as mean ± standard deviation (SD). Statistical data of animal experiments are expressed as mean ± standard error of the mean (SEM). For experiments involving patients, the normality of the distribution was checked using the Shapiro–Wilk test and the statistical analysis was performed using one-way ANOVA with Dunnett’s post-test * p < 0.05, ** […], *** 0.001 > p > 0.0001, **** p < 0.0001.
Table S3. […] Control and
IP, intraperitoneal administration; O, orally

K562-MDR1 cells [6] = assay: P-glycoprotein (CD243)/propidium iodide flow cytometry; format: cell-based, human; details: 1 µM, 24 h; for Proportion of K562-MDR1 cells, mean value: DMSO control 33.6%; for viability at 1 µM: Homo sapiens, DMSO control 89.2%, read-out: Living cells (viability), mean value
Experimental: BK124.1 or DMSO were added to cells and after 24 h incubation cells were harvested and stained with FITC Mouse Anti-Human P-glycoprotein (CD243) clone 17F9 (BD, Franklin Lakes, NJ, USA) or an appropriate isotype control. Propidium iodide was added to […]. Cells were analyzed on a BD FACSCalibur flow cytometer using CellQuest software (BD, Franklin Lakes, NJ, USA). […]
Flow cytometry analysis of CD243 (P-glycoprotein)
Cells were seeded at a concentration of 1-2 × 10^5 cells/mL in a 6- or 24-well plate. After 24 hours of pre-incubation, DMSO or test compounds in DMSO were added. The cells were then incubated for 24 hours. After this time, cells were harvested, washed with 0.5% BSA in PBS (Mg2+ and Ca2+ free), and labeled for 30 minutes on ice with FITC Mouse Anti-Human P-glycoprotein (CD243) clone 17F9 (BD, Franklin Lakes, NJ, USA) or an appropriate isotype control. Following incubation with the antibody, cells were stained with propidium iodide, washed with PBS and a nalyzed on a BD FACSCalibur flow cytometer using CellQuest software (BD, Franklin Lakes, NJ, USA). […]

[7] = Homo sapiens, 48 h, 0,05 µM, 48 h, mean ± SD, read-out: Viability in relation to control
[8] = Homo sapiens, 48 h, mean ± SD, read-out: Viability in relation to control
[9] = Homo sapiens, 48 h, 5 µM, 48 h, mean ± SD, read-out: Viability in relation to control
[10] = 48 h, mean ± SD, read-out: Viability in relation to control
[11] = mean ± SD, standard range 0.0-99.0
[12] = 500 mg/kg IP daily 14 days, mean ± SD, N=4

IC50 (K562-MDR1 cells [1]; Homo sapiens, 48 h): 7 µM
IC50 (K562 cells [2]; MTT, 48 h): 3.7 µM
Compound: COc1cccc2c1C(=O)c1c(O)c3c(c(O)c1C2=O)C[C@@](O)(C(=O)CO)C[C@@H]3O[C@H]1C[C@H](N)[C@H](O)[C@H](C)O1 [doxorubicin]
viability at 5 µM (K562-MDR1 cells [1]; [7]): 101%
viability at 0.005 µM (K562-MDR1 cells [1]; [8]): 99.4%
viability at 5 µM (K562-MDR1 cells [1]; [9]): 45.1%
Cross-resistance of K562-MDR1 cells (K562-MDR1 cells [1]): confirmed
viability at 0.005 µM (K562 cells [2]; [10]): 97.7%

Compound: NC(=O)NO [hydroxyurea, reference compound]
GRA [3, 11]: 26.0±7.6%
LYMP [3, 11]: 58.0±9.9%
MON [3, 11]: 16.0±3.8%
HGB ([3]; mean ± SD, standard range 1.1-18): 13.1 ± 0.8 g/dL
WBC ([3]; mean ± SD, standard range 3.0-15): 8.1±4.3 103/μL
MPV ([3]; mean ± SD, standard range 4.6-7.3): 3.6±4.3 μm3
RBC ([3]; mean ± SD, standard range 5.0-12): 6.9±0.4 106/μL
RDW ([3]; mean ± SD, standard range 11.5-14.5): 17.3±0.6%
MCH ([3]; mean ± SD, standard range 12-24.5): 18.9 ± 0.5 pg
MCHC ([3]; mean ± SD, standard range 21.6-42): 31.5 ± 0.3 g/dL
HCT ([3]; mean ± SD, standard range 36-52): 41.5±2.4%
PLT ([3]; mean, standard range 140-600): 1575.5 103/μL
Brain weight [4, 12]: 0.46 ± 0.02 g
Heart weight [4, 12]: 0.11 ± 0.03 g
Kidneys weight [4, 12]: 0.27 ± 0.04 g
Liver weight [4, 12]: 1.16 ± 0.13 g
Lung weight [4, 12]: 0.25 ± 0.08 g
Splean weight [4, 12]: 0.05 ± 0.01 g
Total body weight course ([4]; doses as in Table S3, control mice gained mass in the last 5 days): began to lose large quantities of weight
Tumor weights (K562 cells [5]; 500 mg/kg IP daily 14 days, mean ± SD, N=4, tumor growth control 9.2±2.1): 1.8 ± 0.9 g
Tumor growth versus control groups (K562 cells [5]; BK124.1 20 or 30 mg/kg IP, imatinib 100 mg/kg orally, hydroxyurea 500 mg/kg IP, 1 x daily): effectively inhibited

IC50 (K562-MDR1 cells [1]; Homo sapiens, 48 h): 7 µM
Compound: CC(=O)O[C@H]1C(=O)[C@@]2(C)[C@H]([C@H](OC(=O)c3ccccc3)[C@]3(O)C[C@H](OC(=O)[C@H](O)[C@@H](NC(=O)c4ccccc4)c4ccccc4)C(C)=C1C3(C)C)[C@]1(OC(C)=O)CO[C@@H]1C[C@@H]2O [paclitaxel]
viability at 5 µM (K562-MDR1 cells [1]; [7]): 89.9%
viability at 5 µM (K562-MDR1 cells [1]; Homo sapiens, 48 h, 0,5 µM, 48 h, mean ± SD, read-out: Viability in relation to control): 48.4%
viability at 0.005 µM (K562-MDR1 cells [1]; [8]): 100%
viability at 5 µM (K562-MDR1 cells [1]; [9]): 44.3%
Cross-resistance of K562-MDR1 cells (K562-MDR1 cells [1]): confirmed
Proportion of K562-MDR1 cells, mean value (K562-MDR1 cells [6]): 33.7%
viability at 1 µM (K562-MDR1 cells [6]): 77.2%
viability at 0.005 µM (K562 cells [2]; [10]): 32.6%

IC50 (K562-MDR1 cells [1]; Homo sapiens, 48 h): 0.512 µM
IC50 (K562 cells [2]; MTT assay): 0.003 µM
Compound: CC[C@]1(O)C[C@H]2CN(CCc3c([nH]c4ccccc34)[C@@](C(=O)OC)(c3cc4c(cc3OC)N(C=O)[C@H]3[C@@](O)(C(=O)OC)[C@H](OC(C)=O)[C@]5(CC)C=CCN6CC[C@]43[C@@H]65)C2)C1 [vincristine]
viability at 1 µM (K562-MDR1 cells [1]; Homo sapiens, 48 h, 0,1 µM, 48 h, mean ± SD, read-out: Viability in relation to control): 94.3%
viability at 0.001 µM (K562-MDR1 cells [1]; Homo sapiens, 48 h, 0,001 µM, 48 h, mean ± SD, read-out: Viability in relation to control): 106%
viability at 1 µM (K562-MDR1 cells [1]; Homo sapiens, 48 h, 1 µM, 48 h, mean ± SD, read-out: Viability in relation to control): 32.4%
viability at 0.005 µM (K562-MDR1 cells [1]; [8]): 111%
Proportion of K562-MDR1 cells, mean value (K562-MDR1 cells [6]): 37.0%
viability at 1 µM (K562-MDR1 cells [6]): 79.7%
viability at 0.001 µM (K562 cells [2]; K562, 48 h, 0,001 µM, 48 h, mean ± SD, read-out: Viability in relation to control): 76.6%
viability at 0.005 µM (K562 cells [2]; [10]): 32.6%

Reference: paper PMC9332833 (Cancers, 2022)
